Counter-ions that a name gives are not always drawn.
Tests used:
Assay type in all cases: physicochemical
[1] = Solid form stability on vacuum drying (XRPD)
Experimental: HCl Pattern 1: Formula I free base (ca. 500 mg) was suspended in nitromethane (50 volumes, 25 mL) with stirring. HCl (1M in THF; 1.2 equivalents; 1.65 mL) was added. The suspension was subjected to heating/cooling cycles between RT and 50° C., 4 hours at each condition for one week. […] The solid was isolated by vacuum filtration and dried under vacuum at RT for 16 hours.

[2] = Stability at 40° C./75% RH (XRPD after storage); conditions: 3 weeks storage, by XRPD
[3] = GVS (gravimetric vapor sorption) moisture sorption isotherm
Experimental: Sorption isotherms were obtained using a SMS DVS Intrinsic moisture sorption analyser, controlled by DVS Intrinsic Control software v1.0.0.30. The sample temperature was maintained at 25° C. by the instrument controls. The humidity was controlled by mixing streams of dry and wet nitrogen, with a total flow rate of 200 mL.min−1 The relative humidity was measured by a calibrated Rotronic probe (dynamic range of 1.0-100% RH), located near the sample. The weight change (mass relaxation) of the sample as a function of % RH was constantly monitored by the microbalance (accuracy±0.005 mg). Approximately 5-20 mg of sample was placed in a tared mesh stainless steel basket under ambient conditions. The sample was loaded and unloaded at 40% RH and 25° C. (typical room conditions). A moisture sorption isotherm was performed as outlined below (2 scans giving 1 complete cycle). The standard isotherm was performed at 25° C. at 10% RH intervals over a 0-90% RH range. Data analysis was undertaken in Microsoft Excel using DVS Analysis Suite v6.0.0.7.

[4] = VH-XRPD (variable humidity XRPD) form stability
Source text: Variable humidity XRPD analysis was undertaken in order to determine if two hydrated species were present. […] On increasing the humidity, the material started to re-hydrate from 13% RH, and reverted completely back to HCl Pattern 2 by 45% RH. […] Only one XRPD pattern was observed upon dehydration and it is not possible to conclude whether this is a totally anhydrous or partially hydrated form.

| SMILES | Form stability on drying under vacuum at RT for 16 hours (XRPD) [1] | Stability at 40° C./75% RH [2] | GVS reversible uptake ([3]; between 40-90% RH, 25° C.) | GVS: RH to which the form appeared stable ([3]; dehydration observed below, rehydration by 40%) | GVS water content at the end of the experiment ([3]; end of GVS experiment) | GVS water content at the end of the experiment, equivalents ([3]; end of GVS experiment) | VH-XRPD: RH below which the material starts to change ([4]; full conversion to HCl Pattern 3 at 0.5% RH) | VH-XRPD: RH to which the form is stable ([4]; then starts to change to HCl Pattern 3) |
| --- | --- | --- | --- | --- | --- | --- | --- | --- |
| Nc1nc2cc(-c3ccc4ncc(C(=O)N5CCOCC5)n4c3)ccc2o1 [HCl Pattern 1] | partially reverted to the free base |  |  |  |  |  |  |  |
| Nc1nc2cc(-c3ccc4ncc(C(=O)N5CCOCC5)n4c3)ccc2o1 [HCl Pattern 2] |  | No significant changes observed by XRPD after 3 weeks storage | Reversible uptake of ca. 6 wt % between 40-90% RH. | ≥ 30 % RH | 10.6 wt % | 3.0 eqs | The material starts to change below 25% RH, with full conversion to HCl | ≥ 14 % RH |
